Experimental data reported in PMC11249646, “Small-Molecule Disruptors of the Interaction between Calcium- and Integrin-Binding Protein 1 and Integrin αIIbβ3 as Novel Antiplatelet Agents” (ACS Pharmacology & Translational Science, 2024).
Like-named read-outs stand apart in the source and are kept apart here. Where a SMILES comes first, the peptide text is derived from it. The star is where a group is joined. Cbz = O=C(OCc1ccccc1)*; CH2Cl = ClC*

Key:
[1] = biological target: T1, CIB1 and αIIb interaction (CIB1-GST : F-αIIb peptide) (Homo sapiens, UniProt Q99828); test: FP assay, 1536-well qHTS format (primary and confirmatory screen); type: binding; conditions: for Confirm? (confirmatory screen): YES/NO; for Curve Class (confirmatory screen): qHTS curve class
T1 construct: made in house; host or cells: BL-21 plus RIL cells (E. coli)
T1 sequence (Q99828 1-191): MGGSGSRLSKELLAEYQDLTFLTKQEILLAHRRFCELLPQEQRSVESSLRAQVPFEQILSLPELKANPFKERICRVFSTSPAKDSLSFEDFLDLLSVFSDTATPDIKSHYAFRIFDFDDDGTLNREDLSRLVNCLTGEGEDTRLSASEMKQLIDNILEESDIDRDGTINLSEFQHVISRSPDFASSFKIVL

[2] = biological target: T2, GST-CIB1 : F-scrambled peptide (Homo sapiens, UniProt Q99828); test: FP scrambled-peptide counter screen, 1536-well format; type: binding; conditions: for Curve Class (counterscreen): qHTS curve class; for IC50: read-out: IC50 [μM] (counterscreen); for Confirm? (counterscreen): YES/NO
T2 construct: made in house; host or cells: BL-21 plus RIL cells (E. coli)
T2 sequence (Q99828 1-191): T1 sequence (Q99828 1-191)

[3] = confirmatory screen, negative sign = inhibitory curve
[4] = confirmatory screen, read-out: IC50 [μM] (confirmatory screen)
[5] = counterscreen, negative sign = inhibitory curve
[6] = qHTS primary screen hits, Table S2, negative = inhibition
[7] = qHTS primary screen hits, Table S2, negative sign = inhibitory curve
[8] = qHTS primary screen hits, Table S2, read-out: IC50
[9] = qHTS primary screen of LOPAC/NPACT libraries, negative = inhibition
[10] = qHTS primary screen of LOPAC/NPACT libraries, negative sign = inhibitory curve
[11] = qHTS primary screen of LOPAC/NPACT libraries, read-out: IC50
[12] = qHTS primary screen hits, Table S2, negative sign = inhibitory curve, several classes where COUNT > 1

SMILES	Efficacy (%) [1, 6] [%]	IC50 [1, 8] [µM]	Efficacy (%) [1, 9] [%]	Curve Class [1, 10]	IC50 [1, 11] [µM]	other results
O=c1[nH]c(=O)c2nc3ccccc3nc2[nH]1 [NCGC00015021-05]	–	–	–	–	–	Efficacy (%) (confirmatory screen) ([1]; confirmatory screen): -58%; Confirm? (confirmatory screen) ([1]; confirmatory screen): YES; Curve Class (confirmatory screen) [1, 3]: -2.2; IC50 [1, 4]: 44.7 µM; Efficacy (%) ([1]; qHTS FP screen hits, Table S2, negative = inhibition): -54%; IC50 ([1]; qHTS FP screen hits, Table S2, read-out: IC50): 33.5 µM; Efficacy (%) (counterscreen) ([2]; counterscreen): -65%; Curve Class (counterscreen) [2, 5]: -2.2; IC50 ([2]; counterscreen): 35.5 µM
COc1ccc2c(c[n+](C)c3c4cc5c(cc4ccc23)OCO5)c1OC.[Cl-] [NCGC00015225-03]	–	–	–	–	–	Efficacy (%) (confirmatory screen) ([1]; confirmatory screen): -56%; Confirm? (confirmatory screen) ([1]; confirmatory screen): YES; Curve Class (confirmatory screen) [1, 3]: -1.4; IC50 [1, 4]: 11.2 µM; Efficacy (%) (counterscreen) ([2]; counterscreen): -55%; Curve Class (counterscreen) [2, 5]: -2.2; IC50 ([2]; counterscreen): 28.2 µM
C=CC1=C(C)c2cc3[nH]c(cc4nc(cc5[nH]c(cc1n2)c(C)c5CCC(=O)O)C(CCC(=O)O)=C4C)c(C)c3C=C [NCGC00015844-07]	–	–	–	–	–	Efficacy (%) (confirmatory screen) ([1]; confirmatory screen): -112%; Confirm? (confirmatory screen) ([1]; confirmatory screen): YES; Curve Class (confirmatory screen) [1, 3]: -1.1; IC50 [1, 4]: 25.1 µM; Efficacy (%) (counterscreen) ([2]; counterscreen): -94%; Curve Class (counterscreen) [2, 5]: -2.2; IC50 ([2]; counterscreen): 25.1 µM
O=c1c(O)c(-c2ccc(O)c(O)c2)oc2cc(O)cc(O)c12 [NCGC00015870-16]	–	–	–	–	–	Efficacy (%) (confirmatory screen) ([1]; confirmatory screen): -32%; Confirm? (confirmatory screen) ([1]; confirmatory screen): YES; Curve Class (confirmatory screen) [1, 3]: -2.4; Efficacy (%) (counterscreen) ([2]; counterscreen): -31%; Confirm? (counterscreen) ([2]; counterscreen): YES; Curve Class (counterscreen) [2, 5]: 4
C[n+]1cc2c3c(ccc2c2ccc4cc5c(cc4c21)OCO5)OCO3.[Cl-] [NCGC00015959-09]	-124	14.1	–	–	–	Curve Class (confirmatory screen) ([1]; Table S3, confirmatory screen, a negative sign marks inhibitory curves): 4; Efficacy (%) (confirmatory screen) ([1]; Table S3, confirmatory screen, negative = inhibition): 0%; Curve Class [1, 7]: -1.1; Curve Class (counterscreen) ([2]; Table S3, counterscreen, a negative sign marks inhibitory curves): 4; Efficacy (%) (counterscreen) ([2]; Table S3, counterscreen, negative = inhibition): 0%
O=C1c2cccc(O)c2C(=O)c2c(O)cccc21 [NCGC00091367-05]	–	–	–	–	–	Efficacy (%) (counterscreen) ([2]; counterscreen): -17%; Confirm? (counterscreen) ([2]; counterscreen): YES; Curve Class (counterscreen) [2, 5]: 4
COc1cc(N2CCC(N3CCN(C)CC3)CC2)ccc1Nc1ncc(Cl)c(-c2c[nH]c3ccccc23)n1 [NCGC00390583-01]	–	–	-31	-2.4	50.1	–
COc1cc(Nc2ccc([N+](=O)[O-])cc2C(=O)O)cc2ccccc12 [NCGC00402240-03]	–	–	-27	-2.4	50.1	–
CCCc1n[nH]c2c1C(c1cc(Cl)cc(Cl)c1O)C(C#N)=C(N)O2 (stereo not drawn) [NCGC00402340-02]	–	–	-29	-2.4	44.7	–
COCc1ccc(-c2nn(Cc3ccccc3)c3ccccc23)o1 [NCGC00479273-01]	-37	56.2	–	–	–	Curve Class [1, 12]: -2.4
Cc1sc2c(c1C)C(c1ccc(Cl)cc1)=N[C@@H](CC(=O)Nc1ccc(OCCOCCOCCOCCNc3cccc4c3C(=O)N(C3CCC(=O)NC3=O)C4=O)cc1)c1nnc(C)n1-2 (stereo partly drawn) [NCGC00483927-01]	–	–	-26	-2.4	22.4	–
C=CC(=O)Nc1ccc(CN2C(=O)N(c3cc(OC)cc(OC)c3)Cc3cnc(Nc4ccc(N5CCN(C)CC5)cc4)nc32)cc1 [NCGC00484066-01]	–	–	-26	-2.4	56.2	–
CN1CCN(c2ccc(C(=O)Nc3n[nH]c4ccc(Cc5cc(F)cc(F)c5)cc34)c(NC3CCOCC3)c2)CC1 [NCGC00484067-01]	–	–	-21	-2.4	56.2	–
O=C([C@@H]1CCCN(c2ccc3[nH]c(C4(n5cc(Cl)cn5)CC4)nc3n2)C1)N1CCCC1 [NCGC00485074-01]	–	–	-26	-2.4	70.8	–
CCOc1ccc(Cc2nc(-c3c(C)nc4ccccn34)cs2)cc1 [NCGC00485083-01]	–	–	-29	-2.4	44.7	–
C=C1C(=O)O[C@@H]2[C@H]3C(C)=CC(=O)C3=C(C)CC[C@@H]12 [NCGC00485131-01]	–	–	-24	-1.4	10	–

SMILES	Efficacy (%) [1, 6] [%]	IC50 [1, 8] [µM]	Efficacy (%) [1, 9] [%]	Curve Class [1, 10]	IC50 [1, 11] [µM]	other results
Oc1ccc2c3c1O[C@H]1c4[nH]c5c(N=C=S)cccc5c4C[C@@]4(O)[C@@H](C2)N(CC2CC2)CC[C@]314 [NCGC00485321-01]	–	–	-30	-2.4	100	–
CC(=O)N[C@@H](CC(=O)O)C(=O)N[C@@H](CCC(=O)O)C(=O)N[C@H](C(=O)N[C@@H](CC(=O)O)C(=O)Nc1ccc2c(C)cc(=O)oc2c1)C(C)C [NCGC00485360-01]	-37	39.8	–	–	–	Curve Class ([1]; qHTS primary screen hits, Table S2, NPACT library, negative sign = inhibitory curve): -2.4
CC(C)C[C@H](NC(=O)CNC(=O)OCc1ccccc1)C(=O)N[C@@H](Cc1ccccc1)C(=O)CCl [NCGC00485375-01] (Cbz-Gly-Leu-Phe-CH2Cl)	–	–	-24	-2.4	22.4	–
CN(C)c1ccc(NC(=O)NS(=O)(=O)c2ccc(Cl)cc2)cc1 [NCGC00485899-01]	–	–	-32	-2.4	50.1	–
Cc1ccc(-c2c(C(=O)CCl)n(CCCO)c3ncnc(N)c23)cc1 [NCGC00485901-01]	–	–	-25	-1.4	3.5	–
O=C(O)/C=C/c1ccc(-c2ccc(O)c(C34CC5CC(CC(C5)C3)C4)c2)cc1 [NCGC00485908-01]	–	–	-26	-2.4	44.7	–
Cc1cc(OCCCS(C)(=O)=O)cc(C)c1-c1cccc(COc2ccc(-c3cc(=O)[nH][s+]3[O-])cc2)c1 (stereo not drawn) [NCGC00485952-01]	–	–	-27	-1.4	4	–
COc1ccc(C2CC(=O)Nc3nc(N4CCCCC4)sc32)c(OC)c1.O=C(O)C(F)(F)F (stereo not drawn) [NCGC00488246-02]	-89	56.2	–	–	–	Curve Class [1, 12]: -2.3
O=C(O)C(F)(F)F.O=C1CC(c2ccc(F)cc2F)c2sc(N3CCOCC3)nc2N1 (stereo not drawn) [NCGC00488253-02]	-42	50.1	–	–	–	Curve Class [1, 12]: -2.4
O=C(O)C(F)(F)F.O=C1CC(c2ccccc2F)c2sc(N3CCOCC3)nc2N1 (stereo not drawn) [NCGC00488254-02]	-42	56.2	–	–	–	Curve Class [1, 12]: -2.4
O=C(O)C(F)(F)F.O=C1CC(c2ccccc2Br)c2sc(N3CCOCC3)nc2N1 (stereo not drawn) [NCGC00488255-02]	-54	79.4	–	–	–	Curve Class [1, 12]: -2.4
COc1ccc(C2CC(=O)Nc3nc(N4CCOCC4)sc32)c(OC)c1.O=C(O)C(F)(F)F (stereo not drawn) [NCGC00488259-02]	-59	56.2	–	–	–	Curve Class [1, 12]: -2.4
O=C(O)C(F)(F)F.O=C1CC(c2ccc(F)cc2Cl)c2sc(N3CCOCC3)nc2N1 (stereo not drawn) [NCGC00488260-02]	-41	50.1	–	–	–	Curve Class [1, 12]: -2.4
O=C(O)C(F)(F)F.O=C1CC(c2c(F)cccc2F)c2sc(N3CCOCC3)nc2N1 (stereo not drawn) [NCGC00488261-02]	-47	56.2	–	–	–	Curve Class [1, 12]: -2.4
CNc1nc2c(s1)C(c1ccc(OC)cc1OC)CC(=O)N2.O=C(O)C(F)(F)F (stereo not drawn) [NCGC00488262-02]	-39	56.2	–	–	–	Curve Class [1, 7]: -2.4
COc1cccc(CNC(=O)C2=NC3SC=C(COCc4ccc(C(=O)O)cc4)C3C(=O)N2)c1 (stereo not drawn) [NCGC00488702-01]	–	–	-27	-1.4	5.6	–
